This is an account of results in publication PMC12079475, “Identification, validation, and characterization of approved and investigational drugs interfering with the SARS‐CoV‐2 endoribonuclease Nsp15” (Protein Science : A Publication of the Protein Society, 2025).

Data set [1] deals with T1, SARS‐CoV‐2 Nsp15 (Severe acute respiratory syndrome coronavirus 2, UniProt P0DTD1). In words: biochemical.
The next data set has as its system SARS‐CoV Nsp15. Conditions: previously reported; ref Ortiz‐Alcantara et al., 2010; read-out: inhibition potency of SARS‐CoV Nsp15; cited from earlier work.
The nature of data set [2]: Readout interference test: compound added after the enzymatic reaction ran to completion. The conditions noted are these: normalized to the DMSO control; compound added after 1 h Nsp15/substrate reaction.
The target of data set [3] is T1, SARS‐CoV‐2 Nsp15. In words: biochemical. The conditions noted are these: for Inhibition % +L-Cys 10 µM / inhibition at 10 µM: L-cysteine buffer; for inhibition at 10 µM: read-out: Inhibition % +L-Cys 10 µM; for loss of the inhibition potency in L‐cysteine buffer: 1 mM L‐cysteine buffer compared with DTT buffer. It is filed as biochemical.
In data set [4] the target is T2, Nsp15 (Severe acute respiratory syndrome coronavirus 2, UniProt P0DTD1).
Data set [5] deals with T2, Nsp15. Conditions: measured particle size.
The subject of data set [6] is SARS‐CoV‐2 in Vero‐E6 cells. Further details: method as in Zaliani et al., 2022. The conditions noted are these: ref Zaliani et al., 2022, read-out: EC50 cytopathic (CPE) assay; cited from earlier work.
Another data set concerns Vero‐E6 cells. The conditions noted are these: cited from earlier work.
On the set-up of data set [7]: method as in Zhao et al., 2021. Conditions: ref Zhao et al., 2021; cited from earlier work.
The mark [8] stands for this setting: DTT buffer, 30 min pre-incubation, read-out: IC50.
Setting [9] is: 1 mM DTT buffer, confidence interval in brackets, read-out: IC50 + DTT (μM) (CI in μM).
Where [10] appears, read: DTT buffer (Table S1), read-out: IC50 +DTT.
Setting [11] is: hit confirmation, 10 µM, DTT buffer.
Setting [12] is: primary screen, 10 µM (Table S1).
The mark [13] stands for this setting: primary screen, 10 μM compound, 1 mM DTT buffer, normalized to 50 μM Congo red (100%) and DMSO (0%).
Setting [14] is: 1 mM L-cysteine buffer, confidence interval in brackets, read-out: IC50 + L‐Cys (μM) (CI in μM).
[15] abbreviates: L-cysteine buffer (Table S1), read-out: IC50 +L-Cys.
[16] abbreviates: hit confirmation, 10 µM, DTT buffer, read-out: HC inhibition % +DTT 10 µM.
Where [17] appears, read: primary screen, 10 µM (Table S1), read-out: PS Inhibition % 10 µM.
The mark [18] stands for this setting: primary screen, 10 μM compound, 1 mM DTT buffer, normalized to 50 μM Congo red (100%) and DMSO (0%), read-out: PS inhibition % 10 μM (single point measurement).

Where two headings read alike, the source gives them in different places.

Consider `Nc1c(/N=N/c2ccc(-c3ccc(/N=N/c4cc(S(=O)(=O)O)c5ccccc5c4N)cc3)cc2)cc(S(=O)(=O)O)c2ccccc12` [Congo red], for which the values for the IC50 on SARS‐CoV‐2 Nsp15 [1] (setting [8]) and in the data set on SARS‐CoV Nsp15 were 7.5 µM and 2500 nM, respectively.
For `CC[n+]1c(-c2ccccc2)c2cc(N)ccc2c2ccc(N)cc21` [Homidium bromide], the “quenching ratio of the fluorescence signal” value in [2] came out at 26.13%.
Consider `CN[C@H](CC(C)C)C(=O)N[C@H]1C(=O)N[C@@H](CC(N)=O)C(=O)N[C@H]2C(=O)N[C@H]3C(=O)N[C@H](C(=O)N[C@H](C(=O)O)c4cc(O)cc(O)c4-c4cc3ccc4O)[C@H](O[C@H]3C[C@](C)(N)[C@@H](O)[C@H](C)O3)c3ccc(c(Cl)c3)Oc3cc2cc(c3O[C@@H]2O[C@H](CO)[C@@H](O)[C@H](O)[C@H]2O[C@H]2C[C@](C)(NCc3ccc(-c4ccc(Cl)cc4)cc3)[C@@H](O)[C@H](C)O2)Oc2ccc(cc2Cl)[C@H]1O.O=P(O)(O)O.O=P(O)(O)O` [Oritavancin (diphosphate)], for which the IC50 at SARS‐CoV‐2 Nsp15 [1] (setting [9]) came to 2.5 µM; on SARS‐CoV‐2 Nsp15 [1] (setting [10]), 2.53 µM; on SARS‐CoV‐2 Nsp15 [3] (setting [14]), 1.2 µM; at SARS‐CoV‐2 Nsp15 [3] (setting [15]) it was 1.24 µM. The “HC inhibition % +DTT 10 µM” value at SARS‐CoV‐2 Nsp15 [1] (setting [11]) was 92,52%. For the same molecule, the “PS Inhibition % 10 µM” value at SARS‐CoV‐2 Nsp15 [1] (setting [12]) is listed as 86,71%. In addition, the “PS inhibition % 10 μM (single point measurement)” value (from here on “PS inhibition % 10 μM”) on SARS‐CoV‐2 Nsp15 [1] (setting [13]) is 86.7%. Further, on SARS‐CoV‐2 Nsp15 [3], the “Inhibition % +L-Cys 10 µM” value is reported as 91,07%. Further, the “ΔT m°C nDSF” value at Nsp15 [4] was found to be 0 °C.
Take `CC[N+](C)(CC)CCC[n+]1c(-c2ccccc2)c2cc(N)ccc2c2ccc(N)cc21.[I-].[I-]` [Propidium‐iodide]: the IC50 on SARS‐CoV‐2 Nsp15 [1] (setting [9]) is 0.9 µM; on SARS‐CoV‐2 Nsp15 [1] (setting [10]), 0.95 µM; at SARS‐CoV‐2 Nsp15 [3] (setting [14]), 9 µM. Moreover, the “HC inhibition % +DTT 10 µM” value on SARS‐CoV‐2 Nsp15 [1] (setting [11]) is 85,94%. Further, the “PS Inhibition % 10 µM” value on SARS‐CoV‐2 Nsp15 [1] (setting [12]) was 83,07%. Further, the “PS inhibition % 10 μM” value on SARS‐CoV‐2 Nsp15 [1] (setting [13]) was found to be 83.1%. Moreover, the “Inhibition % +L-Cys 10 µM” value on SARS‐CoV‐2 Nsp15 [3] was 68,98%. In addition, the “effect on the hexameric Nsp15 structure (DLS)” value on Nsp15 [5] is on record as “significantly affected the hexameric Nsp15 structure”. In addition, on Nsp15 [4], the “ΔT m°C nDSF” value worked out at 0.7 °C.
For orientation: inhibition means the drop in the measured response relative to a control, in per cent. Consider `CN(C)CCNc1nc2cc(O)ccc2c2c1C(=O)c1ccccc1-2.Cl.Cl` [TAS‐103 (dihydrochloride), 6‐[2‐(dimethylamino)ethylamino]‐ 3‐hydroxy‐7H‐indeno[2,1‐C]quinolin‐7‐one dihydrochloride], for which the IC50 on SARS‐CoV‐2 Nsp15 [1] (setting [9]) was determined as 6.6 µM; on SARS‐CoV‐2 Nsp15 [1] (setting [10]) it was 6.55 µM. The inhibition at 10 µM on SARS‐CoV‐2 Nsp15 [1] (setting [16]) is 63.6%; on SARS‐CoV‐2 Nsp15 [1] (setting [17]), 63.4%; on SARS‐CoV‐2 Nsp15 [1] (setting [18]), 63.4%; at SARS‐CoV‐2 Nsp15 [3], -33.9%. Also, the “loss of the inhibition potency in L‐cysteine buffer” value (“loss of the inhibition potency” below) on SARS‐CoV‐2 Nsp15 [3] is given as “more than 50%”. The “ΔT m°C nDSF” value on Nsp15 [4] was found to be 0.6 °C.
In the case of `COc1cc2c(NC3CCN(C(C)C)CC3)nc(C3CCCCC3)nc2cc1OCCCN1CCCC1` [UNC0638], the IC50 at SARS‐CoV‐2 Nsp15 [1] (setting [9]) is 2.8 µM; at SARS‐CoV‐2 Nsp15 [1] (setting [10]) it was 2.84 µM; at SARS‐CoV‐2 Nsp15 [3] (setting [14]) it was 4.8 µM; at SARS‐CoV‐2 Nsp15 [3] (setting [15]) it was 4.77 µM. Moreover, the inhibition at 10 µM on SARS‐CoV‐2 Nsp15 [1] (setting [16]) came out at 69.5%; on SARS‐CoV‐2 Nsp15 [1] (setting [17]), 56.7%; at SARS‐CoV‐2 Nsp15 [1] (setting [18]), 56.7%; at SARS‐CoV‐2 Nsp15 [3], 69.9%.
As a reminder, the EC50 is the concentration at which the effect is half-maximal. Usually CC50 stands for the concentration giving 50% cytotoxicity. Turning to `COc1cc2c(NC3CCN(C(C)C)CC3)nc(N3CCC(F)(F)CC3)nc2cc1OCCCN1CCCC1` [UNC0642], the IC50 on SARS‐CoV‐2 Nsp15 [1] (setting [9]) was determined as 6.3 µM; at SARS‐CoV‐2 Nsp15 [1] (setting [10]), 6.27 µM; at SARS‐CoV‐2 Nsp15 [3] (setting [14]), 3.3 µM; at SARS‐CoV‐2 Nsp15 [3] (setting [15]), 3.27 µM. Moreover, the inhibition at 10 µM on SARS‐CoV‐2 Nsp15 [1] (setting [16]) came out at 77.5%; at SARS‐CoV‐2 Nsp15 [1] (setting [17]), 56.9%; at SARS‐CoV‐2 Nsp15 [1] (setting [18]) it was 56.9%; on SARS‐CoV‐2 Nsp15 [3], 80.2%. For the same molecule, in data set [6], the EC50 is 16.7 µM. For the same molecule, in the data set on Vero‐E6 cells (tested concentration range up to 32 μM, ref Zaliani et al., 2022), the cytotoxic concentration (CC50) is > 32 µM.
For `COc1cc2c(NC3CCN(C4CCCCC4)CC3)nc(N3CCCN(C(C)C)CC3)nc2cc1OCCCN1CCCCC1` [UNC0646], the IC50 at SARS‐CoV‐2 Nsp15 [1] (setting [9]) stood at 1.4 µM; at SARS‐CoV‐2 Nsp15 [1] (setting [8]), 1.36 µM; at SARS‐CoV‐2 Nsp15 [3] (setting [14]), 0.7 µM; at SARS‐CoV‐2 Nsp15 [3] (L‐cysteine buffer, read-out: IC50), 0.73 µM. The inhibition at 10 µM at SARS‐CoV‐2 Nsp15 [1] (setting [16]) amounted to 83.2%; at SARS‐CoV‐2 Nsp15 [1] (setting [17]) it was 75.3%; on SARS‐CoV‐2 Nsp15 [1] (setting [18]) it was 75.3%; on SARS‐CoV‐2 Nsp15 [3], 91.3%. Moreover, the “ΔT m°C nDSF” value at Nsp15 [4] turned out to be 0 °C. Moreover, the EC50 in data set [6] was 35.4 µM. Besides, in the data set with Vero‐E6 cells, the CC50 was 18.6 µM.
Take `COCCn1c2c([n+](Cc3cnccn3)c1C)C(=O)c1ccccc1C2=O` [YM‐155]: the values for the IC50 at SARS‐CoV‐2 Nsp15 [1] (setting [9]) and at SARS‐CoV‐2 Nsp15 [1] (setting [10]) were 1.2 µM and 1.23 µM, respectively. Moreover, the inhibition at 10 µM at SARS‐CoV‐2 Nsp15 [1] (setting [16]) was 79.7%; at SARS‐CoV‐2 Nsp15 [1] (setting [17]), 74%; at SARS‐CoV‐2 Nsp15 [1] (setting [18]) it was 74%; at SARS‐CoV‐2 Nsp15 [3] it was 12.4%. In addition, the “loss of the inhibition potency” value at SARS‐CoV‐2 Nsp15 [3] was “more than 50%”. For the same molecule, at Nsp15 [4], the “ΔT m°C nDSF” value worked out at 0.1 °C. Also, the “cytotoxicity in cell‐based assays” value in data set [7] is given as “no cytotoxicity at tested concentrations”.
Consider `CC1(C)CCC2=C(O1)C(=O)c1ccccc1C2=O` [alphaLapachone], for which the IC50 on SARS‐CoV‐2 Nsp15 [1] (setting [9]) amounted to 2.2 µM; at SARS‐CoV‐2 Nsp15 [1] (setting [10]) it was 2.15 µM. Besides, the inhibition at 10 µM at SARS‐CoV‐2 Nsp15 [1] (setting [16]) amounted to 82.8%; at SARS‐CoV‐2 Nsp15 [1] (setting [17]) it was 76%; on SARS‐CoV‐2 Nsp15 [1] (setting [18]), 76%; on SARS‐CoV‐2 Nsp15 [3] it was 28.6%. Moreover, on SARS‐CoV‐2 Nsp15 [3], the “loss of the inhibition potency” value is “more than 50%”.
Regarding BVT‐948, at SARS‐CoV‐2 Nsp15 [1] (setting [9]), the IC50 amounted to 0.4 µM. The IC50 at SARS‐CoV‐2 Nsp15 [1] (setting [10]) worked out at 0.41 µM. Also, at SARS‐CoV‐2 Nsp15 [1] (setting [11]), the “HC inhibition % +DTT 10 µM” value is 84,54%. Besides, the “PS Inhibition % 10 µM” value at SARS‐CoV‐2 Nsp15 [1] (setting [12]) is recorded as 72,99%. In addition, the “PS inhibition % 10 μM” value on SARS‐CoV‐2 Nsp15 [1] (setting [13]) is on record as 72.9%. In addition, at SARS‐CoV‐2 Nsp15 [3], the “Inhibition % +L-Cys 10 µM” value is reported as -3,98% and the “loss of the inhibition potency” value is “more than 50%”.
